Assay results as given in publication PMC3871185 (ACS medicinal chemistry letters, 2013).
≈ marks a conversion by molar mass, not a printed value. Entries after “also recorded” stand apart in the source; their conditions may differ.

Legend:
B. pseudomallei = conditions: cited from earlier work
[1] = system: Burkholderia thailandensis; conditions: cited from earlier work
[2] = system: clinical B. pseudomallei isolates; conditions: cited from earlier work
hMetAP1 = conditions: read-out: hMetAP1 IC50; cited from earlier work
hMetAP2 = conditions: cited from earlier work; for IC50: read-out: hMetAP2 IC50
BpMetAP1 = BpMetAP1 (Burkholderia pseudomallei, UniProt Q63T11)
[3] = system: Burkholderia thailandensis
[4] = system: Burkholderia thailandensis; assay: microbe, parasite or virus in culture; conditions: read-out: minimum inhibitory concentration (MIC)
B. pseudomallei 1026b = type: cell-based, Burkholderia pseudomallei
[5] = system: B. pseudomallei strain Bp340; type: cell-based, Burkholderia pseudomallei

Chain of BpMetAP1 (Q63T11 1-271): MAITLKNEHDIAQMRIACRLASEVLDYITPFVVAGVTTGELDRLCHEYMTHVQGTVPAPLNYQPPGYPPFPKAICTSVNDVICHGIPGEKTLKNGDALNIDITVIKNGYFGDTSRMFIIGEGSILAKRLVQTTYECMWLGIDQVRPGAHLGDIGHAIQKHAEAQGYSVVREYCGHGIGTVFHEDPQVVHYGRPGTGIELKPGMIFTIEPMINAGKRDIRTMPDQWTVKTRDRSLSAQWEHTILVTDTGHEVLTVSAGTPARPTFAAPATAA

Compound | BpMetAP1 inhibition potency (in words) (BpMetAP1) | growth inhibition of B. thailandensis (in words) [3] | further results
NC[C@H]1O[C@H](O[C@H]2[C@H](O)[C@@H](O[C@H]3O[C@H](CO)[C@@H](O)[C@H](N)[C@H]3O)[C@H](N)C[C@@H]2N)[C@H](O)[C@@H](O)[C@@H]1O [Km, kanamycin] |  |  | killing of B. pseudomallei (B. pseudomallei): complete killing; killing of B. thailandensis [1]: complete killing
CC(C)(O/N=C(\C(=O)N[C@@H]1C(=O)N2C(C(=O)[O-])=C(C[n+]3ccccc3)CS[C@H]12)c1csc(N)n1)C(=O)O [ceftazidime] |  |  | MIC [2]: 1 to 6 µg/mL
O=S(=O)(O)c1ccc(O)c2ncccc12 [compound 1] |  |  | IC50 (hMetAP1): > 15 µM; IC50 (hMetAP2): > 15 µM
Cc1ccc2cccc(O)c2n1 [compound 2, reference compound] | inactive | inhibited cell growth | IC50 (hMetAP1): > 15 µM; IC50 (hMetAP2): > 15 µM
Oc1cccc2cccnc12 [compound 3, reference compound] |  | inhibited cell growth | IC50 (hMetAP1): > 15 µM
Oc1c(CN2CCCCC2)cc(Cl)c2cccnc12 [compound 5] | Met-AP inhibition |  | 
Oc1c(CN2CCSCC2)cc(Cl)c2cccnc12 [compound 7] |  | inhibited cell growth | 
O=[N+]([O-])c1ccc(O)c2ncccc12 [compound 9, 5-nitro-8-hydroxyquinoline] | Met-AP inhibition | potent growth inhibitors; also recorded: inhibition of cell growth | IC50 (hMetAP1): > 15 µM; MIC [4]: ~6 µg/mL (≈ 31.6 µM); activity against human MetAP2 in vitro (hMetAP2): nanomolar range; inhibition of B. pseudomallei 1026b (B. pseudomallei 1026b): no difference in inhibition compared to Bp340; growth inhibition of B. pseudomallei Bp340 [5]: complete growth inhibition
O=[N+]([O-])c1cc(CN2CCCCC2)c(O)c2ncccc12 [compound 10] | decreased potency | inactive | 
CN(C)Cc1cc([N+](=O)[O-])c2cccnc2c1O [compound 11] |  | potent growth inhibitors; also recorded: inhibition of cell growth | 
O=[N+]([O-])c1cc(CN2CCCC2)c(O)c2ncccc12 [compound 12] |  | potent growth inhibitors; also recorded: inhibition of cell growth | 
O=[N+]([O-])c1cc(CN2CCOCC2)c(O)c2ncccc12 [compound 13] | decreased potency |  | 
O=[N+]([O-])c1cc(CN2CCSCC2)c(O)c2ncccc12 [compound 14] | decreased potency |  | 
CN1CCN(Cc2cc([N+](=O)[O-])c3cccnc3c2O)CC1 [compound 15] |  | potent growth inhibitors; also recorded: inhibition of cell growth; also recorded: nearly complete cell growth inhibition | 
Cc1ccc(CSc2nnc(N)[nH]2)cc1 [compound 16] | low micromolar range |  | 
Nc1nnc(SCc2ccc(F)cc2)[nH]1 [compound 17] | low micromolar range |  | 
Nc1nnc(SCc2ccc(Cl)cc2Cl)[nH]1 [compound 18] | low micromolar range |  | 
O=C(O)c1ccc(-c2ccccc2Cl)o1 [compound 22, reference compound] |  | essentially no ability to inhibit bacterial growth | 
O=C(O)c1ccc(-c2cc(Cl)ccc2Cl)o1 [compound 23, reference compound] |  | essentially no ability to inhibit bacterial growth | 
O=C(O)c1cc(Br)ccc1NS(=O)(=O)c1ccc(Cl)cc1 [compound 25] |  | nor the sulfonamide (24 and 25) derivatives demonstrated significant growth inhibition | 
